Data reported in patent publication US20150250786A1, “PYRIMIDINE HYDROXY AMIDE COMPOUNDS AS PROTEIN DEACETYLASE INHIBITORS AND METHODS OF USE THEREOF” (THE TRUSTEES OF THE UNIVERSITY OF PENNSYLVANIA, priority 2012, published 2015).
“And” between values parts separate entries of the source, which are not always exact repeats. Equal values may be shown once. Read-outs that look alike come from different tables or passages of the source.

Experiments:
[1] = system: RN46A-B14 serotonergic cell line; test: α-tubulin K40 acetylation in RN46A-B14 cells (Western blot); assay type: cell-based, rat; details: 4 hours; TSA 0.6 μM, others 2.5 μM
Description: In FIG. 3, it was observed that subchronic treatment, consisting of 5 treatments at 48, 28, 24, 4 and ½ hours before sacrifice, led to greater increase in tubulin acetylation than did chronic treatment of 1 injection/day for 21 days. For cell culture, RN46B cells were treated for with 0.25, 2.5 or 25 μM drug in DMSO for 1, 4 or 24 hours as indicated. Tukey post-hoc analysis: * P=0.01 to 0.05, ** P=0.001-0.01, ***P<0.001 when compared with vehicle treatment.
(§1) Results are shown as percent change normalized to the vehicle treatment condition. The horizontal hard line depicts average and the dotted lines depict SEM of the vehicle treated wells. Representative Western blot images are presented. […] Representative Western blot images are presented. […] The drugs (5 mg/kg) were administered subchronically (at 24 h, 4 h and 30 min prior to sacrifice) to HDAC6 KO and WT littermates. The changes in tubulin acetylation were measured in tissue lysates from cortex (ctx), hippocampus (Hpc), dorsal Raphe nucleus (DRN) and cerebellum (cb). The tubulin acetylation levels in drug-treated mice are expressed as percent change of the vehicle-treated mice of the corresponding genotype. The horizontal lines depict the average tubulin acetylation±SEM in the vehicle treated mice. The representative Western blot images show the changes induced by each drug treatment in the hippocampus (left column) and dorsal raphe (right column) of WT and HDAC6 KO mice.
In contrast to the class I isoforms HDAC2 and 3, which are expressed highly and ubiquitously in the mouse brain, HDAC6 mRNA expression appears to be restricted to a small number of brain areas, with highest signal observed in DRN (FIG. 13f). […] No changes in total α-tubulin expression were detected (FIG. 14a).

[2] = system: RN46A-B14 serotonergic cell line; test: Histone H3K9 acetylation in RN46A-B14 cells (Western blot); assay type: cell-based, rat; details: 2.5 μM, 4 hours
[3] = system: α-tubulin acetylation in mouse whole brain lysates; test: α-tubulin acetylation in whole brain lysates after single i.p. administration; assay type: in vivo; details: compound 73 5 mg/kg, compound 101 50 mg/kg, tubastatin A 10 mg/kg, 30 min, 1 h, 4 h
[4] = system: α-tubulin K40 acetylation in cortex, hippocampus, DRN, cerebellum; test: α-tubulin acetylation in brain regions after subchronic administration, WT and HDAC6 KO mice; assay type: in vivo, mouse
Description: as §1, with “The drugs (5 mg/kg) were administered subchronically (at 24 h, 4 h and 30 min prior to sacrifice) to HDAC6 KO and WT littermates.” left out

[5] = system: histone H3 lysine 9 acetylation; test: Histone H3K9 acetylation in vivo (Western blot, ChIP); set-up: species or system mouse
mice [6] = test: Open-field test; assay type: in vivo, mouse
mice [7] = test: Marble-burying task; assay type: in vivo, mouse; details: acute administration
mice [8] = test: NIH test; assay type: in vivo, mouse; details: acute, 50 mg/kg
mice [9] = test: Elevated plus maze (EPM); assay type: in vivo, mouse; details: acute administration
[10] = system: NIH Swiss mice; C57BL/6J HDAC6 WT and KO mice; test: Tail suspension test (TST); assay type: in vivo, mouse; details: for immobility in TST: NIH Swiss mice
mice [11] = test: Chronic social defeat (CSD) and social interaction test; assay type: in vivo, mouse; details: compound 73 5 mg/kg
Description: Additionally, when combined with a dose of Citalopram with lower activity, these compounds seemed to have an additive effect (See FIG. 10). The dose of Citalopram chosen for this experiment was based on literature stating 2 mg/kg should be subactive, but this dose was found still showing an effect. Mice then underwent chronic social defeat stress, in which the mice are exposed to an aggressive resident mouse for 5 minutes daily for 10 days and are then tested on the 11th day in the social interaction test. Mice treated with vehicle for 20 total days, beginning 10 days before the defeat, show reduced time spent in the interaction zone when a target mouse is present when compared with control mice. […] The percent of mice found to be resilient, defined as spending more time in the interaction zone than the lowest control (i.e. ˜52 s), is higher in HDAC6 inhibitor groups. All behavior testing done using NIH Swiss mice, age 6-10 weeks. Tukey post-hoc analysis: * P=0.01 to 0.05, ** P=0.001-0.01, ***P<0.001 compared with vehicle treated mice.
The effects were observed 30 minutes after acute 50 mg/kg i.p. injection, but not for the lower dose (5 mg/kg). Combination of subactive doses of the HDAC6 selective inhibitors (5 mg/kg) and citalopram (0.5 mg/kg) produced robust potentiation of anti-immobility activity (n=8-29 per condition). […] No difference was observed between HDAC6 WT and KO when treated with the vehicle (n=6-15 per condition). FIG. 16c is a timeline showing treatment period, social defeat and social interaction (SI) testing.
A pro-resilient phenotype in the mouse CSD paradigm after serotonin-selective KO of HDAC6 was previously reported (Espallergues et al, 2012). Whether a chronic pharmacological inhibition of HDAC6 can replicate that phenotype is studied. […] On day 21, 24 h after the last injection, the mice were tested in the social interaction test. […] Significant effects were also observed when data was evaluated in terms of proportion of mice reaching criterion for resiliency.

[12] = Pharmacokinetics and brain bio-distribution in mice; assay type: in vivo, mouse; details: mouse; for Kp: brain, calculated over 2 hours
Description: […] Plasma samples were taken from all mice upon sacrifice. Brain samples were taken from the mice sacrificed at 5 and 15 minutes and 1 and 4 hours. The brain samples were homogenized in PBS and centrifuged at 14000 rpm for 5 minutes. The supernatant from the brain homogenate and the plasma samples were injected onto a LC/MS/MS for analysis. The compound level in the samples was determined by a standard curve in the appropriate matrix. Pharmacokinetic parameters were determined from the raw data by WinNonLin.

[13] = Body weight gain during chronic treatment; assay type: in vivo, mouse; details: 4 weeks of treatment

SMILES: O=C(NO)c1cnc(NC2(c3ccccc3)CC2)nc1 [Compound 73, N-hydroxy-2-((1-phenylcyclopropyl)amino)pyrimidine-5-carboxamide]
- acetylated (lysine 40) fraction of α-tubulin [1]: increases
- change in histone H3K9 acetylation [2]: no significant change
- α-tubulin acetylation in whole brain lysates [3]: significant increases
- α-tubulin acetylation over baseline levels ([4]; HDAC6 KO mice, identical treatment regimens): did not produce increases
- α-tubulin acetylation in cortex, hippocampus, DRN, cerebellum ([4]; wild-type mice, 24 h, 4 h, 30 m before sacrifice, compound 73 5 mg/kg, compound 101 50 mg/kg): significant increases
- histone H3K9 acetylation enrichment at promoter DNA (cFOS, BDNF promoter 4), ChIP ([5]; hippocampus, repeated i.p., compound 73 5 mg/kg, sodium butyrate 1.2 g/kg): no concurrent changes
- acetylation of histone 3 at lysine 9 in Western blot ([5]; in vivo treatment): did not significantly alter
- exploratory activity in novel open-field arena (mice [6]; acute, compounds 73, 101 50 mg/kg, tubastatin A 10 mg/kg): hyperlocomotor effects
- distance in the center of the open field (mice [6]; mouse, in vivo): 602±96 beam breaks
- number of marbles buried (mice [7]): significantly reduced
- latency to eat in the NIH test (mice [8]): significantly decreased
- behavioral changes / time in the open arms of the maze (mice [9]): neither compound 73 nor compound 101 produced behavioral changes
- immobility in TST ([10]; 5 mg/kg): No significant effect
- activity in TST two hours after the injection ([10]; 20 mg/kg citalopram, 50 mg/kg compound 73): still had significant activity
- immobility in TST ([10]; 50 mg/kg i.p., 30 minutes): Significant reductions
- anti-immobility effect in HDAC6 KO mice ([10]; C57BL/6J background, versus WT littermates): no significant effect
- anti-immobility effects in C57BL/6J WT mice ([10]; mouse, in vivo): still significant
- time in the interaction zone versus vehicle, defeated mice (mice [11]; 20 days treatment, fluoxetine 20 mg/kg, compound 101 50 mg/kg): significantly higher
- percentage of resilient mice (mice [11]; after CSD, fluoxetine 20 mg/kg, compound 101 50 mg/kg): 81%
- time spent in the corner zones (mice [11]; versus vehicle): decrease
- Kp ([12]; C57BL/6J, intraperitoneal, read-out: AUCBrain/AUCplasma): 1.22
- concentration at 30 min ([12]; C57BL/6J, plasma, intraperitoneal, 5 mg/kg, read-out: 30 min plasma concentration (ng/ml) - 5 mg/kg): 89 ng/mL
- concentration at 30 min ([12]; C57BL/6J, plasma, intraperitoneal, 50 mg/kg, read-out: 30 min plasma concentration (ng/ml) - 50 mg/kg): 515 ng/mL
- Cmax ([12]; C57BL/6J, plasma, ip, 5 mg/kg, mice, acute i.p. dosing, read-out: Cmax): 0.494 µg/mL
- half-life ([12]; C57BL/6J, plasma, ip, mice, acute i.p. dosing, read-out: T½ plasma (converted)): 12 min
- Kp ([12]; intraperitoneal, read-out: AUCBrain/AUCplasma ratio): > 1
- concentration at 30 min ([12]; plasma, intraperitoneal, acute 50 mg/kg injection, read-out: plasma level at t=30 minutes): 515 ng/mL and 1.9 µM
- concentration at 2 h ([12]; plasma, intraperitoneal, read-out: plasma concentration after two hours): < 0.01 µg/mL
- half-life ([12]; plasma, intraperitoneal, read-out: plasmatic half-life): 12 min
- body weight gain [13]: no significant effect
